Laboratory results published in patent US7718578B2, “Method of synthesis and testing of combinatorial libraries using microcapsules” (Medical Research Council, priority 2003, dated 2010).

How the values were obtained:
[1] = target: T1, human recombinant PTP1B, residues 1-322 (Homo sapiens, UniProt P18031); test: Screening for PTP1B inhibition using microcapsules in microfluidic systems (DiFMUP, epifluorescence microscope); assay type: biochemical; details: Example 5: 100 μM compound solution, PTP1B 50 mU/ml, microfluidic droplets in PFD carrier fluid
T1 construct: human recombinant PTP1B, residues 1-322; Biomol Research Laboratories, Inc; purchased Biomol Research Laboratories, Inc
T1 sequence (P18031 1-322): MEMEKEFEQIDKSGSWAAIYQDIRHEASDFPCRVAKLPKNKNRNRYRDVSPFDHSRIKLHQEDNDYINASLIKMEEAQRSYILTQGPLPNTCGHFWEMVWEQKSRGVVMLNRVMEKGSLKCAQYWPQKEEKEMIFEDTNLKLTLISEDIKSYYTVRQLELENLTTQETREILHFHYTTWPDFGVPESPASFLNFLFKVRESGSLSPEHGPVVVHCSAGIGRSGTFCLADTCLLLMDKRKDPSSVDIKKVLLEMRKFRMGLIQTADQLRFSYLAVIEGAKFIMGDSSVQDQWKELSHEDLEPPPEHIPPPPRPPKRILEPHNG
Experimental: Microchannels are fabricated with rectangular cross-sections using rapid prototyping in poly(dimethylsiloxane) (PDMS) (McDonald and Whitesides, 2002) and rendered hydrophobic as (Song and Ismagilov, 2003). Syringe pumps were used to drive flows (Harvard Apparatus PHD 2000 Infusion pumps). For aqueous solutions, 50 μl Hamilton Gastight syringes (1700 series, TLL) with removeable needles of 27-gaugeare used with 30-gauge Teflon tubing (Weico Wire and Cable). For the carrier fluid, 1 ml Hamilton Gastight syringes (1700 series, TLL) are used with 30-gauge Teflon needles with one hub from Hamilton (Song and Ismagilov, 2003). The carrier fluid is 9% (v/v) C6F11C2H4OH in perfluorodecaline (PFD) (Song et al., 2003). All water-soluble reagents were dissolved in (25 mM HEPES, pH 7.4, 125 mM NaCl, 1 mM EDTA), a buffer compatible with PTP1B activity.
These three steams are continuously injected into a flow of water immiscible fluorocarbon carrier fluid (9% (v/v) C6F11C2H4OH in PFD). Inlet channels for the aqeous solutions are […] wide and channel for PFD is 28 μm wide. […]
The channel immediately downstream of the point of droplet formation is winding with a peak to peak distance of 50 μm for a distance of 1 mm. […] Fluorescence of the microcapsules due to production of DiFMU (excitation/emmission maxima 358/452 nm; blue fluorescence) is measured using an epifluorescence microscope. […]

[2] = target: T1, human recombinant PTP1B, residues 1-322; test: Screening for PTP1B inhibitors in water-in-oil emulsion microcapsules with fluorogenic substrate DiFMUP, multi-colour flow cytometry; assay type: biochemical; details: PTP1B 5 mU/ml, 37° C. for 30 min
Experimental: A solution of 1% (w/v) Span 60 and 1% (w/v) cholesterol in decane (all from Sigma Aldrich) is prepared by dissolving 80 mg of Span 60 and 80 mg of cholesterol into 7.84 ml of decane. The decane is heated to 45° C. to allow complete solubilization of the surfactant and cholesterol. The surfactant/decane solution is divided over batches of 200 μl and placed in a block-heater at 37° C.
A hand-extruding device (Mini extruder, Avanti Polar Lipids Inc, Alabaster, Ala., USA) is assembled according to the manufacturer's instructions. For extrusion, a single 19 mm Track-Etch polycarbonate filter with average pore size of 14 μm (Whatman Nuclepore, Whatman, Maidstone, UK) is fitted inside the mini extruder. Two gas-tight 1 ml Hamilton syringes (Gastight #1001, Hamilton Co, Reno, Nev., USA) are used for extrusion. […]
The two emulsions are mixed by vortexing in ratios varying from 1:1000 to 1:1 (compound 2 emulsion: hydrocinnamic acid emulsion) and incubated at 37° C. for 30 min. Inhibitors reduce the amount of non-fluorescent substrate (DiFMUP) converted to the dephosphorylated product (DiFMU; excitation/emmission maxima 358/452 nm; blue fluorescence). […]
The double emulsions are then analysed by multi-colour flow cytometery using a MoFlo (Cytomation) flow cytometer. […]

[3] = Compartmentalisation of small molecules in water-in-fluorocarbon emulsions (epifluorescence microscopy); assay type: physicochemical; details: water-in-perfluorooctyl bromide emulsions mixed by vortexing, 24 hours after mixing
Experimental: Water-in-fluorocarbon emulsions containing 95% (v/v) perfluorooctyl bromide, 5% (v/v) phosphate buffered saline containing the molecule of interest in solution, and 2% (w/v) C8F17C11H22OP(O)[N(CH2CH2)2O]2 (F8H11DMP) as surfactant were formed essentially as (Sadtler et al., 1996) by extrusion (15 times) through 14 μm filters (Osmonics) or by homogenising for 5 min at 25,000 r.p.m. using an Ultra-Turrax T8 Homogenizer (IKA) with a 5 mm dispersing tool. Emulsions were made containing a series of small fluorescent molecules dissolved in the aqueous phase at concentrations from […] to 2 mM. These molecules, including calcein, texas red, fluorescein, coumarin 102, 7-hydroxycoumarin-3-carboxylic acid and 7-diethylamino-4-methyl coumarin (coumarin 1), had molecular weights from 203 to 625 Da and Log P values—calculated using SRC's LogKow/KowWin Program (Meylan and Howard, 1995)—ranging from −0.49 to 4.09. Emulsions containing different coloured fluorochromes were mixed by vortexing. Compartmentalisation was observed by epifluorescence microscopy of the mixed emulsions. No exchange between compartments was observed 24 hours after mixing (see FIG. 5).

Compound | fluorescence of microcapsules due to production of DiFMU [1] | blue fluorescence of microcapsules (dephosphorylation of DiFMUP by PTP1B) ([2]; Example 1: 100 μM compound, two emulsions mixed by vortexing) | blue fluorescence of microcapsules (dephosphorylation of DiFMUP by PTP1B) ([2]; Example 2: 100 μM compound, mixtures added sequentially while homogenising) | exchange between microdroplets / compartments [3]
O=C(O)CCc1ccccc1 [hydrocinnamic acid] | exhibiting blue fluorescence | blue fluorescence due to dephosphorylation of DiFMUP by PTP1B | blue fluorescence due to dephosphorylation of DiFMUP by PTP1B | –
texas-red | – | – | – | No exchange
O=C(O)CN(CC(=O)O)Cc1cc2c(cc1O)Oc1cc(O)c(CN(CC(=O)O)CC(=O)O)cc1C21OC(=O)c2ccccc21 [calcein] | – | – | – | No exchange
